Reference: patent US8445492B2, “Method for inhibiting growth of cancer cells and cell telomere and diseases of cell proliferation by using heteroannelated anthraquinone derivative compounds” (National Defense Medical Center, priority 2008, dated 2013)
Like-named read-outs stand apart in the source and are kept apart here.

How the values were obtained:
[1] = system: PC-3
[2] = system: DU-145
[3] = system: A498; experiment: NCI DTP in-vitro dose response, Renal Cancer; format: cell-based
[4] = system: CAKI-1; experiment: NCI DTP in-vitro dose response, Renal Cancer; format: cell-based
[5] = system: TK-10; experiment: NCI DTP in-vitro dose response, Renal Cancer; format: cell-based
[6] = system: 786-0; experiment: NCI DTP in-vitro dose response, Renal Cancer; format: cell-based
[7] = system: UO-31; experiment: NCI DTP in-vitro dose response, Renal Cancer; format: cell-based
[8] = system: SN12C; experiment: NCI DTP in-vitro dose response, Renal Cancer; format: cell-based
[9] = system: ACHN; experiment: NCI DTP in-vitro dose response, Renal Cancer; format: cell-based

## O=C1c2ccccc2C(=O)c2c1ccc1nccnc21 [TABLE 5-8]
[1]; PC-3
  TGI: >1.00E−4
[1]; PC-3, Log10 Concentration −4.0
  Percent Growth: 50%
[1]; PC-3, Log10 Concentration −5.0
  Percent Growth: 50%
[1]; PC-3, Log10 Concentration −6.0
  Percent Growth: 69%
[1]; PC-3, Log10 Concentration −7.0
  Percent Growth: 92%
[1]; PC-3, Log10 Concentration −8.0
  Percent Growth: 101%
[1]; read-out: LC50, PC-3
  CC50: > 100 µM
[2]; DU-145
  GI50: 11.4 µM
  TGI: 3.43E−5
[2]; DU-145, Log10 Concentration −4.0
  Percent Growth: −49%
[2]; DU-145, Log10 Concentration −5.0
  Percent Growth: 56%
[2]; DU-145, Log10 Concentration −6.0
  Percent Growth: 96%
[2]; DU-145, Log10 Concentration −7.0
  Percent Growth: 95%
[2]; DU-145, Log10 Concentration −8.0
  Percent Growth: 102%
[2]; read-out: LC50, DU-145
  CC50: > 100 µM

## CCc1nc2ccc3c(c2[nH]1)C(=O)c1ccccc1C3=O [TABLE 4-7]
[3]
  CC50: > 100 µM
  TGI: 4.27E−5
[3]; Log10 Concentration −4.0
  Percent Growth: −20%
[3]; Log10 Concentration −5.0
  Percent Growth: 34%
[3]; Log10 Concentration −6.0
  Percent Growth: 74%
[3]; Log10 Concentration −7.0
  Percent Growth: 97%
[3]; Log10 Concentration −8.0
  Percent Growth: 94%
[3]; read-out: GI50
  GI50: 3.89 µM
[4]
  CC50: > 100 µM
  TGI: >1.00E−4
[4]; Log10 Concentration −4.0
  Percent Growth: 9%
[4]; Log10 Concentration −5.0
  Percent Growth: 20%
[4]; Log10 Concentration −6.0
  Percent Growth: 76%
[4]; Log10 Concentration −7.0
  Percent Growth: 91%
[4]; Log10 Concentration −8.0
  Percent Growth: 97%
[4]; read-out: GI50
  GI50: 2.9 µM
[5]
  CC50: > 100 µM
  TGI: >1.00E−4
[5]; Log10 Concentration −4.0
  Percent Growth: 3%
[5]; Log10 Concentration −5.0
  Percent Growth: 39%
[5]; Log10 Concentration −6.0
  Percent Growth: 75%
[5]; Log10 Concentration −7.0
  Percent Growth: 113%
[5]; Log10 Concentration −8.0
  Percent Growth: 95%
[5]; read-out: GI50
  GI50: 4.88 µM
[6]
  CC50: > 100 µM
  TGI: >1.00E−4
[6]; Log10 Concentration −4.0
  Percent Growth: 38%
[6]; Log10 Concentration −5.0
  Percent Growth: 68%
[6]; Log10 Concentration −6.0
  Percent Growth: 95%
[6]; Log10 Concentration −7.0
  Percent Growth: 102%
[6]; Log10 Concentration −8.0
  Percent Growth: 104%
[6]; read-out: GI50
  GI50: 40.2 µM
[7]
  CC50: > 100 µM
  TGI: >1.00E−4
[7]; Log10 Concentration −5.0
  Percent Growth: 15%
[7]; Log10 Concentration −6.0
  Percent Growth: 67%
[7]; Log10 Concentration −7.0
  Percent Growth: 83%
[7]; Log10 Concentration −8.0
  Percent Growth: 88%
[7]; read-out: GI50
  GI50: 2.12 µM
[8]
  CC50: > 100 µM
  TGI: >1.00E−4
[8]; Log10 Concentration −4.0
  Percent Growth: 18%
[8]; Log10 Concentration −5.0
  Percent Growth: 46%
[8]; Log10 Concentration −6.0
  Percent Growth: 74%
[8]; Log10 Concentration −7.0
  Percent Growth: 80%
[8]; Log10 Concentration −8.0
  Percent Growth: 74%
[8]; read-out: GI50
  GI50: 7.05 µM
[9]
  CC50: > 100 µM
  TGI: 5.46E−5
[9]; Log10 Concentration −4.0
  Percent Growth: −5%
[9]; Log10 Concentration −5.0
  Percent Growth: 14%
[9]; Log10 Concentration −6.0
  Percent Growth: 62%
[9]; Log10 Concentration −7.0
  Percent Growth: 85%
[9]; Log10 Concentration −8.0
  Percent Growth: 94%
[9]; read-out: GI50
  GI50: 1.77 µM
